Source: patent US9073925B2, “Azinone-substituted azabicycloalkane-indole and azabicycloalkane-pyrrolo-pyridine MCH-1 antagonists, methods of making, and use thereof” (Albany Molecular Research, Inc., priority 2009, dated 2015)
Counter-ions that a name gives are not always drawn.

Biological target: human MCH-1 receptor (Homo sapiens (Human), UniProt Q99705)
Assay: Binding assay for human melanin-concentrating hormone (MCH1) receptor
Conditions: membranes from CHO-K1 cells expressing human MCH-1 receptor; 1.4 nM [3H]-labeled radioligand; 60 min at 25° C.; Ki by Cheng Prusoff
Description: Evaluation of the affinity of compounds for the human MCH-1 receptor was accomplished using 4-(3,4,5-tritritiumbenzyloxy)-1-(1-(2-(pyrrolidin-1-yl)ethyl)-1H-indazol-5-yl)pyridin-2(1H)-one and membranes prepared from stable CHO-K1 cells expressing the human MCH-1 receptor obtained from Euroscreen (Batch 1138). Cell membrane homogenates (8.92 μg protein) were incubated for 60 min at 25° C. with 1.4 nM of the [^3H]-labeled compound in the absence or presence of the test compound in 50 mM Tris-HCl buffer, pH 7.4. Nonspecific binding was determined in the presence of 50 μM 1-(5-(4-cyanophenyl)bicyclo[3.1.0]hexan-2-yl)-3-(4-fluoro-3-(trifluoromethyl)phenyl)-1-(3-(4-methylpiperazin-1-yl)propyl)urea. Following incubation, the samples were filtered rapidly under vacuum through Skatron 11731 filters, pre-soaked in 0.5% polyethylenimine, and washed with ice-cold 50 mM Tris-HCl buffer, pH 7.4, (wash setting 9,9,0) using a Skatron cell harvester. The filters were counted for radioactivity in a liquid scintillation counter (Tri-Carb 2100TR, Packard) using a scintillation cocktail (Ultima Gold MV, Perkin Elmer).
The results are expressed as a percent inhibition of the control radioligand specific binding. The IC50 value (concentration causing a half-maximal inhibition of control specific binding) and Hill coefficient (nH) were determined by non-linear regression analysis of the competition curve using Hill equation curve fitting. The inhibition constant (Ki) was calculated from the Cheng Prusoff equation: (Ki=IC50/(1+(L/KD)), where L=concentration of radioligand in the assay, and KD=affinity of the radioligand for the receptor.

Chain of human MCH-1 receptor (Q99705 whole entry): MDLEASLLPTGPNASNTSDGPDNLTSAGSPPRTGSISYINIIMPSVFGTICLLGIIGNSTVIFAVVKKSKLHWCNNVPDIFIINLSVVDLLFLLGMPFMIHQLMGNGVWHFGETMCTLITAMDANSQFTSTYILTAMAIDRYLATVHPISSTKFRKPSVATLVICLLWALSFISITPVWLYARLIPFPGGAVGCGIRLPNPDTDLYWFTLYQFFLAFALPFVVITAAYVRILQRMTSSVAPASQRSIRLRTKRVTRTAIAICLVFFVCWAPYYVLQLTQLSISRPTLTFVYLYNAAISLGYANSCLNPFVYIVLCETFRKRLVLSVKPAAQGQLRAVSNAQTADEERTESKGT

| Ki | Compound |
| --- | --- |
| 6.4 nM | Cn1c2c(c3ccc(-n4ccc(OCc5ccccc5)cc4=O)cc31)CN1CCC2C1 (stereo not shown) [Example 2, 4-(Benzyloxy)-1-(6-methyl-3,4,5,6-tetrahydro-1H-2,5-methanoazepino[4,3-b]indol-8-yl)pyridin-2(1H)-one hydrochloride] |
| 5.9 nM | Cn1c2c(c3ccc(-n4ccc(OCc5ccccc5)cc4=O)cc31)CN1CCC2CC1 [Example 3, 4-(Benzyloxy)-1-(6-methyl-3,4,5,6-tetrahydro-1H-2,5-ethanoazepino[4,3-b]indol-8-yl)pyridin-2(1H)-one hydrochloride] |
| 23 nM | Cn1c2c(c3ccc(-n4ccc(-c5ccc(C(F)(F)F)nn5)cc4=O)cc31)CN1CCC2CC1 [Example 5, 1-(6-Methyl-3,4,5,6-tetrahydro-1H-2,5-ethanoazepino[4,3-b]indol-8-yl)-4-(6-(trifluoromethyl)pyridazin-3-yl)pyridin-2(1H)-one hydrochloride] |
| 123 nM | Cn1c2c(c3ccc(-n4ccc(-c5ccc(C(F)(F)F)cn5)cc4=O)cc31)CN1CCC2CC1 [Example 6, 1-(6-Methyl-3,4,5,6-tetrahydro-1H-2,5-ethanoazepino[4,3-b]indol-8-yl)-4-(5-(trifluoromethyl)pyridin-2-yl)pyridin-2(1H)-one hydrochloride] |
| 11 nM | Cn1c2c(c3ccc(-n4ccc(OCc5ccc(C(F)(F)F)nc5)cc4=O)cc31)CN1CCC2CC1 [Example 7, 1-(6-Methyl-3,4,5,6-tetrahydro-1H-2,5-ethanoazepino[4,3-b]indol-8-yl)-4-((6-(trifluoromethyl)pyridin-3-yl)methoxy)pyridin-2(1H)-one hydrochloride] |
| 29 nM | Cn1c2c(c3ccc(-n4ccc(OCc5ccccc5)cc4=O)nc31)CN1CCC2CC1 [Example 8, 4-(Benzyloxy)-1-(10-methyl-7,8,9,10-tetrahydro-5H-6,9-ethanopyrido[3′,2′:4,5]pyrrolo[3,2-c]azepin-2-yl)pyridin-2(1H)-one hydrochloride] |
| 15 nM | Cn1c2c(c3ccc(-n4ccc(OCc5ccc(F)cc5F)cc4=O)nc31)CN1CCC2CC1 [Example 9, 4-(2,4-Difluorobenzyloxy)-1-(10-methyl-7,8,9,10-tetrahydro-5H-6,9-ethanopyrido[3′,2′:4,5]pyrrolo[3,2-c]azepin-2-yl)pyridin-2(1H)-one hydrochloride] |
| 15 nM | Cn1c2c(c3ccc(-n4ccc(-c5ccc(C(F)(F)F)cc5)cc4=O)nc31)CN1CCC2CC1 [Example 10, 1-(10-Methyl-7,8,9,10-tetrahydro-5H-6,9-ethanopyrido[3′,2′:4,5]pyrrolo[3,2-c]azepin-2-yl)-4-(4-(trifluoromethyl)phenyl)pyridin-2(1H)-one hydrochloride] |
| 25 nM | Cn1c2c(c3ccc(-n4ccc(OCc5ccc(F)cn5)cc4=O)nc31)CN1CCC2CC1 [Example 11, 4-((5-Fluoropyridin-2-yl)methoxy)-1-(10-methyl-7,8,9,10-tetrahydro-5H-6,9-ethanopyrido[3′,2′:4,5]pyrrolo[3,2-c]azepin-2-yl)pyridin-2(1H)-one hydrochloride] |

| Compound | Ki |
| --- | --- |
| Cn1c2c(c3ccc(-n4ccc(OCc5ccc(F)cn5)cc4=O)cc31)CN1CCC2CC1 [Example 4, 4-((5-Fluoropyridin-2-yl)methoxy)-1-(6-methyl-3,4,5,6-tetrahydro-1H-2,5-ethanoazepino[4,3-b]indol-8-yl)pyridin-2(1H)-one hydrochloride] | 44 nM |
